Experimental findings from US20180111893A1, “POLYCATIONIC AMPHIPHILES AND POLYMERS THEREOF AS ANTIMICROBIAL AGENTS AND METHODS USING SAME” (Temple University-Of The Commonwealth System of Higher …, priority 2015, published 2018) are described below.

The test system of this assay is CA-MRSA strain. Nature of the assay: Reactivation assay (sub-MIC co-dosing). In kind it is cell-based, Staphylococcus aureus. The note with it: sub-MIC concentrations of TET-14,0,0, varying concentrations of triscationic variant. The source says: It was hypothesized that by using a reactivation assay (essentially the inverse of a potentiation assay), the role QacR plays in monoQAC resistance could be better understood. […] Other possible hypotheses include that QacR may be activated by our monoQACs but that QacA cannot efflux the trisQACs or that the resistance mechanism implicated for TET-14,0,0 may be orthogonal to the Qac system.

For the compound `CCCCCCCCCCCCCC[N+](CC)(CC)c1ccc(N(c2ccc([N+](C)(CC)CC)cc2)c2ccc([N+](C)(CC)CC)cc2)cc1` [TET-14,1,1], the “modification of MIC on co-dosing with sub-MIC TET-14,0,0” value is “did not result in any significant modification”.
